Literature values in patent publication US20200085832A1, “DEUTERATED ANALOGS OF AN ORGANIC COMPOUND” (Agios Pharmaceuticals, Inc., priority 2019, published 2020).

Experiments:
mutant IDH1 (mIDH1) = details: D. Rohle et al. Science 340:626-630 (2013)
mutant IDH2 (mIDH2) = details: D. Rohle et al. Science 340:626-630 (2013)
mIDH1-driven gliomas = details: some model systems
mutant IDH2 = details: biochemical and cellular assays
mutant IDH1 = details: biochemical and cellular assays

SMILES	inhibition of mutant IDH1 (mutant IDH1 (mIDH1))	inhibition of mutant IDH2 (mutant IDH2 (mIDH2))	growth of mIDH1-driven gliomas (mIDH1-driven gliomas)	inhibitor of mutant IDH2 protein (mutant IDH2)	inhibitor of mutant IDH1 protein (mutant IDH1)
Cc1ccccc1C(C(=O)NC1CCCCC1)N(C(=O)Cn1ccnc1C)c1cccc(F)c1 (centres unmarked) [AGI-5198]	inhibit mutant IDH1 (mIDH1)	not mutant IDH2 (mIDH2)	repress growth of mIDH1-driven gliomas	–	–
C[C@@H](Nc1nc(N[C@H](C)C(F)(F)F)nc(-c2cccc(Cl)n2)n1)C(F)(F)F [Compound X, 6-(6-chloropyridin-2-yl)-N^2,N^4-bis((R)-1,1,1-trifluoropropan-2-yl)-1,3,5-triazine-2,4-diamine]	–	–	–	inhibitor of mutant IDH1 and IDH2 proteins	inhibitor of mutant IDH1 and IDH2 proteins
